PMC2765658 (Chemical communications (Cambridge, England), 2009)
Square brackets hold non-standard residues; d marks the D form. Peptide text beside a SMILES is read from it. Aib = CC(C)(N)C(=O)O

Experiment: Thermal melting followed by CD ellipticity
Type: physicochemical
Conditions: CD ellipticity followed over 20 - 85 °C; 100 μM peptide in 20% TFE/H2O

SMILES: CC(=O)NCCCC[C@H](NC(=O)[C@@H](NC(C)=O)C(C)C)C(=O)N[C@@H](CC(C)C)C(=O)NC(C)(C)C(=O)N[C@H](C(=O)N[C@@H](CCCCNC(C)=O)C(=O)N[C@@H](CC(C)C)C(N)=O)C(C)C [compound 17, Ac-Val-Lys(Ac)-Leu-Aib-Val-Lys(Ac)-Leu-NH2] (Ac-VK(Ac)L[Aib]VK(Ac)L-NH2)
- thermal melting point (Tm): 48 °C
